From PubChem BioAssay (NCI) come the findings set out here.

Among the test systems are TK-10 renal; SR leukemia; ACHN renal; NCI-H226 lung; HOP-62 NSCLC; SN12C renal; CAKI-1 renal; HCT-15 colon; SW-620 colon; HL-60(TB) leukemia.
Test in all cases: growth of human tumour cells (NCI), 48 h

Several values for one entry are separate records, joined by “and”; a condition that tells them apart may be missing. Equal entries are not always repeated.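 A five-concentration, 48-hour dose response in 96-well plates underlies each endpoint, interpolated linearly between surrounding concentrations. The concentration for 50% growth inhibition is given as GI50. TGI denotes the concentration required for complete inhibition of growth.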

Turning to `C=C(C)[C@@H]1CC[C@]2(C)[C@H](CC=C3[C@@H]4[C@@H](C)[C@H](C)CC[C@]4(C(N)=O)CC[C@]32C)[C@@]1(C)CCC#N`, the GI50 in the test on TK-10 renal is 8.41 µM; in the test with SR leukemia, 2.58 µM; in the test with ACHN renal it was 3.37 µM; in the test on NCI-H226 lung, 5.09 µM; in the test on HOP-62 NSCLC, 7.71 µM; in the test on SN12C renal, 3.36 µM. Besides, the GI50 was 3.25 µM in the test on CAKI-1 renal, 3.44 µM with HCT-15 colon, 4.5 µM in the test with SW-620 colon and 2.35 µM in the test on HL-60(TB) leukemia. Besides, the TGI in the test on TK-10 renal is 91.5 µM; with SR leukemia, 9.48 µM; in the test on ACHN renal, over 100 µM; in the test on NCI-H226 lung it was 27 µM; in the test with HOP-62 NSCLC it was over 100 µM; in the test on SN12C renal, 10.7 µM. Also, the TGI in the test with CAKI-1 renal is over 100 µM; with HCT-15 colon, over 100 µM; with SW-620 colon, over 100 µM; with HL-60(TB) leukemia, 6.03 µM.

As for `Clc1ccc2nnnn2n1`, the GI50 with TK-10 renal was 3.5 µM; with SR leukemia, 1.46 µM; in the test with ACHN renal, 5.27 µM; with NCI-H226 lung, 4.84 µM; with HOP-62 NSCLC it was 4.51 µM; in the test on SN12C renal, 4.7 µM. Also, the GI50 in the test with CAKI-1 renal is 10.1 µM; in the test with HCT-15 colon, 4.01 µM; in the test on SW-620 colon it was 3.88 µM; in the test with HL-60(TB) leukemia, 1.94 µM. Besides, the TGI in the test with TK-10 renal is 23.6 µM; in the test on SR leukemia it was 8 µM; in the test with ACHN renal it was 19.5 µM; with NCI-H226 lung, 35.9 µM; with HOP-62 NSCLC it was 33.1 µM; with SN12C renal, over 100 µM. Further, the TGI in the test on CAKI-1 renal is 22.8 µM; with HCT-15 colon it was over 100 µM; in the test on SW-620 colon, 22 µM; with HL-60(TB) leukemia it was 5.14 µM.

Take `OC(CNCC1CCCO1)Cn1c2ccc(Cl)cc2c2cc(Cl)ccc21` (configuration not stated): the GI50 is 2.05 µM with TK-10 renal; 2.05 µM in the test with SR leukemia; 1.68 µM in the test with ACHN renal; 2.42 µM in the test on NCI-H226 lung; 1.72 µM with HOP-62 NSCLC; 2.06 µM in the test on SN12C renal. The GI50 in the test on CAKI-1 renal was 1.54 µM; in the test on HCT-15 colon, 1.67 µM; with SW-620 colon it was 1.7 µM; in the test on HL-60(TB) leukemia it was 2.3 µM. For the same molecule, the TGI in the test with TK-10 renal was 3.75 µM; in the test with SR leukemia, 5.5 µM; in the test on ACHN renal, 3.16 µM; with NCI-H226 lung, 8.1 µM; in the test with HOP-62 NSCLC, 3.39 µM; in the test on SN12C renal it was 4.58 µM. Also, the TGI in the test on CAKI-1 renal came out at 3 µM; with HCT-15 colon it was 3.26 µM; in the test with SW-620 colon, 3.38 µM; with HL-60(TB) leukemia, 5.51 µM.

On to `Oc1[nH]c2c(Br)cccc2c1C1=Nc2ccccc2/C1=N/OCCN1CCCC1`, for which the GI50 in the test with TK-10 renal is 2.58 µM and 1.8 µM; in the test with SR leukemia, 0.373 µM; in the test on ACHN renal, 0.414 µM and 0.379 µM; in the test with NCI-H226 lung it was 0.948 µM and 0.708 µM; in the test on HOP-62 NSCLC, 0.704 µM; in the test on SN12C renal, 0.74 µM. The GI50 was 0.332 µM in the test on CAKI-1 renal; 0.719 µM and 0.496 µM in the test with HCT-15 colon; 1.49 µM and 0.542 µM in the test with SW-620 colon; 1.04 µM and 0.998 µM with HL-60(TB) leukemia. Moreover, the TGI is over 100 µM with TK-10 renal; 1.77 µM with SR leukemia; 2.12 µM and 3.8 µM in the test with ACHN renal; 3.05 µM and 29.1 µM in the test on NCI-H226 lung; 2.65 µM in the test with HOP-62 NSCLC; 4.99 µM and 8.59 µM with SN12C renal. In the test with CAKI-1 renal, this molecule registered a TGI of 2.24 µM.

Consider `CN(C)CC1C(=O)O[C@H]2[C@H]1CC/C(COC(=O)c1cc3ccccc3[nH]1)=C\CC[C@@]1(C)O[C@@H]21` (some centres not stated), for which the GI50 in the test on TK-10 renal is 2.04 µM; with SR leukemia, 1.55 µM; in the test on ACHN renal, 0.923 µM; with NCI-H226 lung, 3.23 µM; with HOP-62 NSCLC, 2.72 µM; in the test with SN12C renal, 2.2 µM. For the same molecule, the GI50 with CAKI-1 renal was 1.31 µM; in the test on HCT-15 colon, 0.629 µM; in the test on SW-620 colon, 1.75 µM; in the test with HL-60(TB) leukemia, 0.663 µM. Also, the TGI was 3.98 µM with TK-10 renal; 9.89 µM with SR leukemia; 2.48 µM in the test on ACHN renal; 9.35 µM in the test with NCI-H226 lung; 7.98 µM in the test on HOP-62 NSCLC; 6.08 µM in the test on SN12C renal. Besides, the TGI in the test with CAKI-1 renal turned out to be 2.85 µM; with HCT-15 colon it was 2.28 µM; with SW-620 colon, 4.41 µM; with HL-60(TB) leukemia, 3.53 µM.

In the case of `COc1ccc(C(=O)/C=C/c2ccc3c(c2)OCO3)c(OCc2ccccc2)c1`, the TGI is over 100 µM in the test on TK-10 renal; over 27.1 µM with SR leukemia; over 100 µM in the test on ACHN renal; over 100 µM in the test on NCI-H226 lung; over 100 µM with HOP-62 NSCLC; over 100 µM with SN12C renal. In addition, the TGI in the test with CAKI-1 renal was over 100 µM; in the test with HCT-15 colon, over 100 µM; with SW-620 colon it was over 100 µM; with HL-60(TB) leukemia it was 6.47 µM.

For the molecule `COc1cc(/C=C/C(=O)c2c(C)nc3ccccc3c2/C=C/c2ccc(C)cc2)cc(OC)c1OC`, the GI50 with TK-10 renal is 5.37 µM; in the test on SR leukemia, 2 µM; with ACHN renal, 1.99 µM; with NCI-H226 lung, 2.18 µM; in the test with HOP-62 NSCLC, 3.1 µM; in the test with SN12C renal, 1.85 µM. In addition, the GI50 is 1.4 µM in the test on CAKI-1 renal, 1.53 µM with HCT-15 colon, 3.09 µM in the test with SW-620 colon and 2.22 µM in the test on HL-60(TB) leukemia. The TGI is 67 µM in the test on TK-10 renal; 9.11 µM in the test with SR leukemia; 4.6 µM with ACHN renal; 6.11 µM in the test with NCI-H226 lung; 9.94 µM in the test on HOP-62 NSCLC; 4.31 µM in the test with SN12C renal. In addition, the TGI was 3.01 µM in the test with CAKI-1 renal, 3.62 µM in the test with HCT-15 colon, over 100 µM in the test on SW-620 colon and 6.29 µM in the test with HL-60(TB) leukemia.

Consider `O=C(O)C1C(C(=O)O)C23CC2(C(=O)O)C2(C(=O)O)CCC3=C3CCCC312` (configuration not stated), for which the TGI in the test on TK-10 renal was 38.1 µM; with SR leukemia it was 6.6 µM; in the test with ACHN renal, 59.2 µM; with NCI-H226 lung, 27.5 µM; with HOP-62 NSCLC, 22.4 µM; with SN12C renal, 36.4 µM. Further, the TGI is 81.9 µM with CAKI-1 renal, over 100 µM in the test on HCT-15 colon, over 100 µM in the test on SW-620 colon and 18.3 µM with HL-60(TB) leukemia.

For the molecule `CN(C)CCCN1c2ccccc2C(C)(C)c2ccccc21`, the TGI in the test on TK-10 renal came to 27.2 µM; in the test with SR leukemia, 27.1 µM; in the test on ACHN renal it was 28.6 µM; with NCI-H226 lung, 29.7 µM; in the test on HOP-62 NSCLC it was 31.5 µM; with SN12C renal it was 27.9 µM. For the same molecule, the TGI in the test on CAKI-1 renal is 25.5 µM; in the test on HCT-15 colon it was 29.8 µM; in the test on SW-620 colon it was 52.4 µM; in the test on HL-60(TB) leukemia, 33.6 µM.

For `COc1cc2c(cc1OCCCCCOc1ccc(-n3c(C)nc4ccccc4c3=O)cc1)N=C[C@@H]1CCCN1C2=O`, the GI50 is 0.32 µM in the test with TK-10 renal; 0.11 µM in the test on SR leukemia; 0.342 µM in the test with ACHN renal; 0.214 µM in the test with NCI-H226 lung; 0.23 µM with HOP-62 NSCLC; 0.264 µM in the test on SN12C renal. The GI50 in the test on CAKI-1 renal is 0.275 µM; in the test with HCT-15 colon, 1.13 µM; with SW-620 colon, 0.323 µM; in the test with HL-60(TB) leukemia, 0.34 µM. For the same molecule, the TGI is 0.867 µM in the test with TK-10 renal; 0.393 µM with SR leukemia; 1.53 µM with ACHN renal; 0.466 µM in the test on NCI-H226 lung; 0.524 µM in the test on HOP-62 NSCLC; 3.38 µM with SN12C renal. Moreover, the TGI turned out to be 1.02 µM with CAKI-1 renal, 3.9 µM with HCT-15 colon, 2.8 µM in the test on SW-620 colon and 1.3 µM in the test on HL-60(TB) leukemia.

Turning to `Cc1[nH]c(=O)n2c(C)nnc2c1C(=O)Nc1cc(Cl)cc(Cl)c1`, the TGI with TK-10 renal was 52.1 µM; in the test on SR leukemia it was 66.5 µM; in the test with ACHN renal, over 100 µM; in the test with NCI-H226 lung it was 68.5 µM; in the test with HOP-62 NSCLC, 79.4 µM; with SN12C renal, 66.5 µM. Moreover, the TGI was over 100 µM with CAKI-1 renal, 78.7 µM with HCT-15 colon, over 100 µM in the test with SW-620 colon and 47.9 µM in the test with HL-60(TB) leukemia.
